# Patent US11001615B2, “Mutated tau protein fragment and use thereof” (ADEL INC., priority 2016, dated 2021)
# “Also recorded” adds a separate entry of the source. Ends that are not written are not given here.
# Columns and labels:
# Format in all cases: in vivo
# [1] = system: Tau-P301L dementia mice; test: Forced swimming test; conditions: second day, 5 minutes
# Protocol: (§1) JNPL3 mice expressing Tau-P301L mutant gene were purchased from Taconic, and back-crossed with C57bl/6 mice for five generations in the experimental animal room of the Asan Institute for Life Sciences. Then, the mice were raised under a specific pathogen free (SPE) condition. For active immunization, the mice were administered, for six months starting from three months after birth at intervals of two weeks, two weeks, four weeks, four weeks, five weeks, four weeks, and one week in this order, the four modified tau protein fragments prepared in Preparation Example 1 together with keyhole limpet hemocyanin (KLH) as a carrier and an aluminum adjuvant. At this time, administration was carried out through intraperitoneal injection (IP injection). The dementia mice which were actively immunized by administration of the K280-ac fragment were designated as Tau-P301L-K280-ac.
# A forced swimming test was conducted to identify a depression-ameliorating effect in the Tau-P301L dementia mice produced in Preparation Example 2. The experiment was conducted for a total of 2 days. […] An index to swim in water (Swimming/S), an index to climb up along the beaker wall (Climbing/C), and an index to float in water without any movement (Immobility/I) were respectively analyzed.
# [2] = system: Tau-P301L dementia mice; test: Nest building test; conditions: Tau-P301L about 50% decrease versus normal mice
# Protocol: as §1
# Behavioral experiments were conducted to identify changes in motor ability and cognitive function of the Tau-P301L dementia mice produced in Preparation Example 2. A nest building test which can identify a multimodal brain function of the mice was performed.
# Specifically, two-thirds of the litter in a cage where the mice are raised was removed and four layers of sterile cotton (5 cm×5 cm) were placed in the cage. One mouse was allowed to enter one cage. The next morning, a degree of completion of the nest was analyzed.
# [3] = system: Tau-P301L dementia mice; test: Memory tests and motor ability tests after active immunization (overall comparison); conditions: comparison of the four modified tau protein fragments
# Text: Tau-P301L dementia mice were actively immunized by administration of the four modified tau protein fragments prepared in Preparation Example 1. Then, the Tau-P301L dementia mice were subjected to memory tests such as fear conditioning test and Morris water maze test, motor ability tests such as grip strength test and vertical test, and the like, so that improved effects obtained by the respective modified tau protein fragments were compared.
# as §1
# [4] = system: Tau-P301L dementia mice; test: Antibody distribution in brain tissue (immunohistochemical staining and western blotting for mouse immunoglobulin-G); conditions: after cardiac perfusion
# Protocol: as §1
# In order to identify antibodies in brain tissues of the Tau-P301L-K280-ac dementia mice, the P301L-K280-ac dementia mice, and the normal mice produced in Preparation Example 2, cardiac perfusion was performed with cold physiological saline. Then, the brain tissues were extracted, and immunohistochemical staining and western blotting were performed for mouse immunoglobulin-G.
# [5] = system: Tau-P301L dementia mice; test: MR spectroscopy (MRS) of the hippocampus; conditions: hippocampus ROI; dementia mice about 50% decrease versus normal mice
# Protocol: as §1
# In order to identify a metabolic imaging index-improving effect following administration of the K280-ac fragment, MR spectroscopy (MRS) was performed on the Tau-P301L-K280-ac dementia mice, the P301L-K280-ac dementia mice, and the normal mice produced in Preparation Example 2. The hippocampus was designated as a region of interest (ROI) (FIG. 36).
# [6] = system: Tau-P301L dementia mice; test: qPCR of brain tissues for inflammation-related genes; conditions: brain tissue, compared with non-immunized dementia mice
# Protocol: as §1
# In order to identify an inflammation-improving effect following administration of the K280-ac fragment, brain tissues of the Tau-P301L-K280-ac dementia mice, the P301L-K280-ac dementia mice, and the normal mice produced in Preparation Example 2 were extracted, and qPCR was performed for inflammation-related genes.
# [7] = system: Tau-P301L dementia mice; test: Grip strength test
# Protocol: as §1
# A grip strength test was performed to identify muscle strength of the mice. […] At this time, an iron bundle that weighs 40 g was used for the iron bundle. The mice produced in Preparation Example 2 were held by the tail end, and the forefeet of the mice were caused to be placed on the 40 g iron bundle so that the mice can grab the iron bundle. […] The time until the mice missed the iron bundle was measured and comparison was made for the respective mice.
# [8] = system: Tau-P301L dementia mice; test: ELISA using plasma: antibody production against modified tau protein fragments; conditions: ELISA using plasma after final administration; fragment with KLH and aluminum adjuvant, IP
# Protocol: as §1
# In order to identify whether antibodies against the four modified tau protein fragments prepared in Preparation Example 1 were produced, the respective modified tau protein fragments or the full-length tau protein was finally administered, and then ELISA was performed using plasma.
# [9] = system: Tau-P301L dementia mice; test: Vertical grid test; conditions: normal mice 10 or shorter, Tau-P301L 5 or shorter
# Protocol: as §1
# A vertical grid test was performed on the mice raised in Preparation Example 2. […] Specifically, the mice were placed on the vertical grid device, and allowed to go up and down the vertical grid. The time until the mice dropped down from the grid was measured.
# [10] = system: Tau-P301L dementia mice; test: Novel object recognition experiment; conditions: Tau-P301L 50% decrease versus normal mice
# Protocol: as §1
# In addition, a memory experiment was performed with novel object recognition. […] Two identical objects were placed in the white box, and then the time spent staying around each object was measured while allowing the mice to make exploration for 5 minutes. 4 hours later, one of the objects installed was replaced with another model, and movement of the mice and the time spent staying around the object were measured for 5 minutes.
substance,measurement,setting,value
Val-Gln-Ile-Ile-Asn-Lys-Lys-Leu-Asp-Leu-Ser-Asn (VQIINK(Ac)KLDLSN) [K280-ac],"depression-ameliorating effect (immobility, swimming, climbing)",[1],depression-ameliorating effect is exhibited
same,building score,[2],restored to a level which is similar to that in the normal mice
same,improved effect in memory and motor ability tests,[3],improved effect at a level similar to that in normal mice; also recorded: restores a motor ability and a cognitive function
same,antibodies in brain tissues,[4],antibodies are present
same,N-acetyl-aspartyl-glutamic acid (NAAG),[5],restored
same,IFN-γ gene,[6],decrease
same,IL-4 gene,[6],decrease
same,IL-12 gene,[6],increase
same,IL-22 gene,[6],decrease
same,measured time for grab strength,"[7]; 40 g iron bundle, normal mice 10 or shorter, Tau-P301L 5 or shorter",about 12 seconds
same,"grip strength, change versus controls",[7]; actively immunized Tau-P301L dementia mice,restored to that of the normal mice
same,antibodies against the fragment produced,[8],well produced
same,measured time on the vertical grid,[9],10 s
same,time spent staying around the novel object,[10],increased to a level which corresponds to that in the normal mice
